# Test results: ChEMBL document CHEMBL1136164, “Carbonic anhydrase inhibitors: X-ray crystallographic structure of the adduct of human isozyme II with a bis-sulfonamide-two heads are better than one?” (Bioorg Med Chem Lett, 2003)
# Experiments:
# [1] = species: Oryctolagus cuniculus; assay: Prolonged IOP lowering by the compound in glaucomatous rabbit for 5 to 6 hours; assay type: functional
# [2] = species: Oryctolagus cuniculus; assay: Prolonged IOP lowering by the compound in glaucomatous rabbit for 3 hours; assay type: functional
SMILES,IOP lowering [1],IOP lowering [2]
NS(=O)(=O)c1ccc(CCNC(=O)c2ccc(S(N)(=O)=O)cc2)cc1,9.5 mmHg,–
CCN[C@H]1C[C@H](C)S(=O)(=O)c2sc(S(N)(=O)=O)cc21 [DORZOLAMIDE],–,3.6 mmHg
